Experimental data published in patent publication US10590105B2, “1,3-dihydroxy-phenyl derivatives useful as immunomodulators” (BRISTOL-MYERS SQUIBB COMPANY, priority 2016, dated 2020).

target: PD-1/PD-L1 interaction (PD-1-Ig / PD-L1-His) (Homo sapiens (Human), UniProt Q9NZQ7); assay: PD-1/PD-L1 Homogenous Time-Resolved Fluorescence (HTRF) binding assay; details: PD-1/PD-L1 HTRF binding assay; value given as number; read-out: Range or IC50
Excerpt: The ability of the compounds of formula (I) to bind to PD-L1 was investigated using a PD-1/PD-L1 Homogenous Time-Resolved Fluorescence (HTRF) binding assay.
Homogenous Time-Resolved Fluorescence (HTRF) Binding Assay.
The interaction of PD-1 and PD-L1 can be assessed using soluble, purified preparations of the extracellular domains of the two proteins. The PD-1 and PD-L1 protein extracellular domains were expressed as fusion proteins with detection tags, for PD-1, the tag was the Fc portion of Immunoglobulin (PD-1-Ig) and for PD-L1 it was the 6 histidine motif (PD-L1-His). All binding studies were performed in an HTRF assay buffer consisting of dPBS supplemented with 0.1% […] bovine serum albumin and 0.05% (v/v) Tween-20. For the h/PD-L1-His binding assay, inhibitors were pre-incubated with PD-L1-His (10 nM final) for 15 m in 4 μl of assay buffer, followed by addition of PD-1-Ig (20 nM final) in 1 μl of assay buffer and further incubation for 15 m. HTRF detection was achieved using europium crypate-labeled anti-Ig (1 nM final) and allophycocyanin (APC) labeled anti-His (20 nM final). Antibodies were diluted in HTRF detection buffer and 5 μl was dispensed on top of the binding reaction. The reaction mixture was allowed to equilibrate for 30 minutes and the resulting signal (665 nm/620 nm ratio) was obtained using an EnVision fluorometer. Additional binding assays were established between the human proteins PD-1-Ig/PD-L2-His (20 & 5 nM, respectively) and CD80-His/PD-L1-Ig (100 & 10 nM, respectively).
Recombinant Proteins. Human PD-1 (25-167) with a C-terminal human Fc domain of immunoglobulin G (Ig) epitope tag [hPD-1 (25-167)-3S-IG] and human PD-L1 (18-239) with a C-terminal His epitope tag [hPD-L1(18-239)-TVMV-His] were expressed in HEK293T cells and purified sequentially by ProteinA affinity chromatography and size exclusion chromatography. Human PD-L2-His and CD80-His was obtained through commercial sources.
Ranges are as follows: A=0.001 to 0.010 micromolar; B=0.011 to 0.150 micromolar; C=0.151 to 10 micromolar.

PD-1/PD-L1 interaction (PD-1-Ig / PD-L1-His), sequence (Q9NZQ7 other isoform, or with tags, fused parts or gaps): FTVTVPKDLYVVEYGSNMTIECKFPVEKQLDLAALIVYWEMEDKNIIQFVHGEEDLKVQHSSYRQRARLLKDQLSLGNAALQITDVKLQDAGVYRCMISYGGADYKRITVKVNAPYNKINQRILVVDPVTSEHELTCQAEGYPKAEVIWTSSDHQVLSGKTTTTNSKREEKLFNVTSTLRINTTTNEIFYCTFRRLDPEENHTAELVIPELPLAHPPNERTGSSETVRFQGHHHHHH

| IC50 | Molecule |
| --- | --- |
| 1570 nM | Cc1c(COc2cc(OCc3cncc(C#N)c3)c(CN[C@](C)(CO)C(=O)O)cc2Cl)cccc1-c1cnc2ccc(Br)cc2n1 [Example 1010, (R)-2-((4-((3-(7-bromoquinoxalin-2-yl)-2-methylbenzyl)oxy)-5-chloro-2-((5-cyanopyridin-3-yl)methoxy)benzyl)amino)-3-hydroxy-2-methylpropanoic acid] |

same assay, conditions: PD-1/PD-L1 HTRF binding assay; value given as range class; read-out: Range or IC50

| IC50 | Molecule |
| --- | --- |
| 151 to 10000 nM | Cc1c(COc2cc(OCc3cncc(C#N)c3)c(CN[C@](C)(CO)C(=O)O)cc2Cl)cccc1-c1cc2ccccc2cn1 [Example 1007, (R)-2-((5-chloro-2-((5-cyanopyridin-3-yl)methoxy)-4-((3-(isoquinolin-3-yl)-2-methylbenzyl)oxy)benzyl)amino)-3-hydroxy-2-methylpropanoic acid] |
| 151 to 10000 nM | 2-((5-chloro-2-((5-cyanopyridin-3-yl)methoxy)-4-((3-(1-(2-(dimethylamino)ethyl)-1H-benzo[d]imidazol-6-yl)-2-methylbenzyl)oxy)benzyl)amino)-2-methylpropanoic acid and 2-((5-chloro-2-((5-cyanopyridin-3-yl)methoxy)-4-((3-(1-(2-(dimethylamino)ethyl)-1H-benzo[d]imidazol-5-yl)-2-methylbenzyl)oxy)benzyl)amino)-2-methylpropanoic acid [Example 1026] |
| 1 to 10 nM | Cc1c(COc2cc(OCc3cncc(C#N)c3)c(CN[C@](C)(CO)C(=O)O)cc2Cl)cccc1-c1ccc2nccnc2c1 [Example 1035, (R)-2-((5-chloro-2-((5-cyanopyridin-3-yl)methoxy)-4-((2-methyl-3-(quinoxalin-6-yl)benzyl)oxy)benzyl)amino)-3-hydroxy-2-methylpropanoic acid] |
| 151 to 10000 nM | Cc1c(COc2cc(OCc3cncc(C#N)c3)c(CN3CCCC[C@H]3C(=O)O)cc2Cl)cccc1-c1cccc(OCCCN2CC[C@@H](O)C2)n1 [Example 1030, (S)-1-(5-chloro-2-((5-cyanopyridin-3-yl)methoxy)-4-((3-(6-(3-((R)-3-hydroxypyrrolidin-1-yl)propoxy)pyridin-2-yl)-2-methylbenzyl)oxy)benzyl)piperidine-2-carboxylic acid] |
| 1 to 10 nM | Cc1c(COc2cc(OCc3cncc(C#N)c3)c(CNC(C)(CO)CO)cc2Cl)cccc1-c1nccc(OCCCN2CC[C@@H](O)C2)c1Cl [Example 2002, (R)-5-((4-chloro-5-((3-(3-chloro-4-(3-(3-hydroxypyrrolidin-1-yl)propoxy)pyridin-2-yl)-2-methylbenzyl)oxy)-2-(((1,3-dihydroxy-2-methylpropan-2-yl)amino)methyl)phenoxy)methyl)nicotinonitrile] |
| 1 to 10 nM | Cc1c(COc2cc(OCc3cncc(C#N)c3)c(CNC(C)(CO)CO)cc2Cl)cncc1-c1cccc(OCCCN2CC[C@@H](O)C2)c1C [Example 2008, (R)-5-((4-chloro-2-(((1,3-dihydroxy-2-methylpropan-2-yl)amino)methyl)-5-((5-(3-(3-(3-hydroxypyrrolidin-1-yl)propoxy)-2-methylphenyl)-4-methylpyridin-3-yl)methoxy)phenoxy)methyl)nicotinonitrile] |
| 151 to 10000 nM | Cc1c(COc2cc(OCc3cncc(C#N)c3)c(CN[C@H](CO)C(=O)O)cc2Cl)cccc1-c1ccc2c(c1)ncn2CCN(C)C [Example 1025, (R)-2-((5-chloro-2-((5-cyanopyridin-3-yl)methoxy)-4-((3-(1-(2-(dimethylamino)ethyl)-1H-benzo[d]imidazol-6-yl)-2-methylbenzyl)oxy)benzyl)amino)-3-hydroxypropanoic acid and (R)-2-((5-chloro-2-((5-cyanopyridin-3-yl)methoxy)-4-((3-(1-(2-(dimethylamino)ethyl)-1H-benzo[d]imidazol-5-yl)-2-methylbenzyl)oxy)benzyl)amino)-3-hydroxypropanoic acid] |
| 151 to 10000 nM | Cc1c(COc2cc(OCc3cncc(C#N)c3)c(CN[C@@](C)(CO)C(=O)O)cc2Cl)cccc1-c1cccn(CCCN2CC[C@@H](O)C2)c1=O [Example 1037, (S)-2-((5-chloro-2-((5-cyanopyridin-3-yl)methoxy)-4-((3-(1-(3-((R)-3-hydroxypyrrolidin-1-yl)propyl)-2-oxo-1,2-dihydropyridin-3-yl)-2-methylbenzyl)oxy)benzyl)amino)-3-hydroxy-2-methylpropanoic acid] |
| 1 to 10 nM | Cc1c(COc2cc(OCc3cncc(C#N)c3)c(CN[C@](C)(CO)C(=O)O)cc2Cl)cccc1-c1ccc2scnc2c1 [Example 1021, (R)-2-((4-((3-(benzo[d]thiazol-5-yl)-2-methylbenzyl)oxy)-5-chloro-2-((5-cyanopyridin-3-yl)methoxy)benzyl)amino)-3-hydroxy-2-methylpropanoic acid] |
| 151 to 10000 nM | Cc1c(COc2cc(OCc3cncc(C#N)c3)c(CN[C@](C)(CO)C(=O)O)cc2Cl)cccc1-c1ccc2ncccc2c1 [Example 1005, (R)-2-((5-chloro-2-((5-cyanopyridin-3-yl)methoxy)-4-((2-methyl-3-(quinolin-6-yl)benzyl)oxy)benzyl)amino)-3-hydroxy-2-methylpropanoic acid] |
| 151 to 10000 nM | Cc1c(COc2cc(OCc3cncc(C#N)c3)c(CN3CCCC[C@H]3C(=O)O)cc2Cl)cccc1-c1cnc2ccccc2c1 [Example 1003, (S)-1-(5-chloro-2-((5-cyanopyridin-3-yl)methoxy)-4-((2-methyl-3-(quinolin-3-yl)benzyl)oxy)benzyl) piperidine-2-carboxylic acid] |
| 11 to 150 nM | Cc1c(COc2cc(OCc3cncc(C#N)c3)c(CNC(C)(C)C(=O)O)cc2Cl)cccc1-c1ccc2scnc2c1 [Example 1022, 2-((4-((3-(benzo[d]thiazol-5-yl)-2-methylbenzyl)oxy)-5-chloro-2-((5-cyanopyridin-3-yl)methoxy)benzyl)amino)-2-methylpropanoic acid] |
